Columns and labels:
[1] = system: Zone of skin; assay: Upregulation of SIRT-1 gene expression in human epidermal full thickness skin cultures at 1 % after 24 hrs by real time PCR analysis relative to control; format: functional
[2] = system: Zone of skin; assay: Upregulation of elastin gene expression in human epidermal full thickness skin cultures at 1 % after 24 hrs by real time PCR analysis relative to control; format: functional
[3] = Lipophilicity, log P of the compound; conditions: octanol/water
[4] = system: Zone of skin; assay: Upregulation of FBN 1 gene expression in human epidermal full thickness skin cultures at 1 % after 24 hrs by qPCR analysis relative to control; format: functional
[5] = system: Zone of skin; assay: Upregulation of SOD 1 gene expression in human epidermal full thickness skin cultures at 1 % after 24 hrs by qPCR analysis relative to control; format: functional
[6] = system: Zone of skin; assay: Upregulation of TIMP 2 gene expression in human epidermal full thickness skin cultures at 1 % after 24 hrs by real time PCR analysis relative to control; format: functional
[7] = system: Zone of skin; assay: Upregulation of HBEGF gene expression in human epidermal full thickness skin cultures at 1 % after 24 hrs by qPCR analysis relative to control; format: functional
[8] = system: Zone of skin; assay: Upregulation of IGF 1 gene expression in human epidermal full thickness skin cultures at 1 % after 24 hrs by qPCR analysis relative to control; format: functional
[9] = system: Zone of skin; assay: Upregulation of TGF gene expression in human epidermal full thickness skin cultures at 1 % after 24 hrs by qPCR analysis relative to control; format: functional
[10] = system: NHDF; assay: Upregulation of SIRT-1 gene expression in NHDF by real time RT-PCR analysis relative to control; format: functional, Homo sapiens
[11] = system: Zone of skin; assay: Upregulation of PCNA gene expression in human epidermal full thickness skin cultures at 1 % after 24 hrs by qPCR analysis relative to control; format: functional
[12] = system: Zone of skin; assay: Upregulation of NGF gene expression in human epidermal full thickness skin cultures at 1 % after 24 hrs by qPCR analysis relative to control; format: functional
[13] = system: Zone of skin; assay: Upregulation of MT1H gene expression in human epidermal full thickness skin cultures at 1 % after 24 hrs by qPCR analysis relative to control; format: functional
[14] = system: Zone of skin; assay: Toxicity in human epidermal full thickness skin cultures assessed as intact and healthy fibroblasts at 1 % after 24 hrs by hematoxylin/eosin staining based assay
[15] = system: Zone of skin; assay: Upregulation of SOD 2 gene expression in human epidermal full thickness skin cultures at 1 % after 24 hrs by qPCR analysis relative to control; format: functional
[16] = system: Zone of skin; assay: Upregulation of MT2A gene expression in human epidermal full thickness skin cultures at 1 % after 24 hrs by qPCR analysis relative to control; format: functional
[17] = system: Zone of skin; assay: Upregulation of procollagen type III gene expression in human epidermal full thickness skin cultures at 1 % after 24 hrs by real time PCR analysis relative to control; format: functional
[18] = system: Zone of skin; assay: Toxicity in human epidermal full thickness skin cultures assessed as intact and healthy stratum corneum at 1 % after 24 hrs by hematoxylin/eosin staining based assay
[19] = system: Zone of skin; assay: Upregulation of catalase gene expression in human epidermal full thickness skin cultures at 1 % after 24 hrs by qPCR analysis relative to control; format: functional
[20] = system: Zone of skin; assay: Upregulation of LOX gene expression in human epidermal full thickness skin cultures at 1 % after 24 hrs by qPCR analysis relative to control; format: functional
[21] = system: Zone of skin; assay: Upregulation of TIMP 1 gene expression in human epidermal full thickness skin cultures at 1 % after 24 hrs by real time PCR analysis relative to control; format: functional
[22] = system: Zone of skin; assay: Upregulation of type IV collagen alpha 1 gene expression in human epidermal full thickness skin cultures at 1 % after 24 hrs by real time PCR analysis relative to control; format: functional
[23] = system: Zone of skin; assay: Toxicity in human epidermal full thickness skin cultures assessed as intact and healthy keratinocytes at 1 % after 24 hrs by hematoxylin/eosin staining based assay
[24] = system: Zone of skin; assay: Upregulation of type IV collagen alpha 2 gene expression in human epidermal full thickness skin cultures at 1 % after 24 hrs by real time PCR analysis relative to control; format: functional
[25] = system: Zone of skin; assay: Upregulation of LAMB 1 gene expression in human epidermal full thickness skin cultures at 1 % after 24 hrs by qPCR analysis relative to control; format: functional

Oc1ccc(/C=C/c2cc(O)cc(O)c2)cc1 [RESVERATROL]
fold change (FC) [1]: 1.8 | Activity [2]: 180% | logP [3]: 3.1

CC(=O)Oc1ccc(/C=C/c2cc(O)cc(O)c2)cc1
Activity [1]: 335% | Activity [4]: 130% | Activity [5]: 160% | Activity [6]: 130% | Activity [7]: 190% | Activity [2]: 280% | Activity [8]: 264% | Activity [9]: 200% | fold change (FC) [10]: >3.3 | Activity [11]: 540% | Activity [12]: 672% | Activity [13]: 6400% | Activity [14]: Non-toxic | Activity [15]: 170% | Activity [16]: 340% | Activity [17]: 220% | Activity [18]: Non-toxic | Activity [19]: 160% | Activity [20]: 190% | Activity [21]: 250% | Activity [22]: 170% | Activity [23]: Non-toxic | Activity [24]: 180% | Activity [25]: 140%

Reference: ChEMBL document CHEMBL3813606, “Synthesis and skin gene analysis of 4'-acetoxy-resveratrol (4AR), therapeutic potential for dermal applications” (Bioorg Med Chem Lett, 2016)
